The target in this test is PNK–FHA (FHA domain of human PNK, amino acids 1–109) (Homo sapiens, UniProt Q96T60). It counts as binding. The conditions noted are these: ITC, peptide injected into PNK–FHA, 10°C, pH 7.5; floating variable of the fit.

Where “and” joins values, the source holds several entries; their conditions need not be identical. Equal values may be shown once.

For YAGSTDENTDSE, the “N (stoichiometry, estimated molar ratio peptide:PNK–FHA)” value was 0.46 and 0.50 and 0.56 and 0.88 and 0.51.

These data come from publication PMC2655680 (Nucleic Acids Research, 2009).
